{"source": "patent US9090600B2", "about": "“Fungicidal 4-substituted-3-{phenyl[(heterocyclylmethoxy)imino]methyl}-1,2,4-oxadizol-5(4H)-one derivatives” (BAYER INTELLECTUAL PROPERTY GMBH, priority 2011, dated 2015)", "note": "Marks after values point to notes of the source that are not given here.", "data": [{"details": "pH 2.7", "values": [{"smiles": "Cn1c(/C(=N\\OCc2csc(NC(=O)COc3ccccc3)n2)c2ccccc2)noc1=O", "note": "[Example 315]", "LogP": "3.51 [a]"}, {"smiles": "CCCCOC(=S)Nc1nc(CO/N=C(/c2ccccc2)c2noc(=O)n2C)cs1", "note": "[Example 410]", "LogP": "4.56 [a]"}, {"smiles": "Cn1c(/C(=N\\OCc2cccc(NC(=O)OCCC3CC3)n2)c2ccccc2)noc1=O", "note": "[compound 438]", "LogP": "4.01 [a]"}, {"smiles": "C=CCCCCOC(=O)Nc1cccc(CO/N=C(/c2ccccc2)c2noc(=O)n2C)n1", "note": "[compound 454]", "LogP": "4.39 [a]"}, {"smiles": "Cn1c(C(=NOCc2cccc(NC(=O)OCC3CCCO3)n2)c2ccccc2)noc1=O", "note": "(stereo not drawn) [compound 483]", "LogP": "3.11 [a]"}, {"smiles": "C=C(C)COC(=O)Nc1cccc(CON=C(c2ccccc2)c2noc(=O)n2C)n1", "note": "[compound 504]", "LogP": "3.73 [a]"}, {"smiles": "Cn1c(/C(=N\\OCc2cccc(NC(=O)OCCc3ccccn3)n2)c2ccccc2)noc1=O", "note": "[compound 471]", "LogP": "2.07 [a]"}, {"smiles": "COc1ccc(C(=O)Nc2nc(CO/N=C(/c3ccccc3)c3noc(=O)n3C)cs2)cc1", "note": "[Example 393]", "LogP": "3.48 [a]"}, {"smiles": "Cn1c(/C(=N\\OCc2cccc(NC(=O)OCCCC3CCCCC3)n2)c2ccccc2)noc1=O", "note": "[compound 523]", "LogP": "5.71 [a]"}, {"smiles": "COc1ccccc1OCC(=O)Nc1cccc(CO/N=C(/c2ccccc2)c2noc(=O)n2C)n1", "note": "[Example 31]", "LogP": "3.8 [a]"}, {"smiles": "Cc1cccc(COC(=O)Nc2cccc(CO/N=C(/c3ccccc3)c3noc(=O)n3C)n2)c1", "note": "[compound 458]", "LogP": "4.34 [a]"}, {"smiles": "CC(C)OC(=O)Nc1cccc(CO/N=C(/c2ccccc2)c2noc(=O)n2C)n1", "note": "[compound 427]", "LogP": "3.55 [a]"}, {"smiles": "NC(=NO)C(=NOCc1cccc(N)n1)c1ccccc1", "note": "(mixture of isomers) [Example V-9]", "LogP": "0.39 [a]"}, {"smiles": "CC/C=C/CCOC(=O)Nc1cccc(CO/N=C(/c2ccccc2)c2noc(=O)n2C)n1", "note": "[compound 522]", "LogP": "4.46 [a]"}, {"smiles": "Cn1c(/C(=N\\OCc2cccc(NC(=O)OCC3CCOC3)n2)c2ccccc2)noc1=O", "note": "(stereo not drawn) [compound 524]", "LogP": "2.98 [a]"}, {"smiles": "Cn1c(/C(=N\\OCc2cccc(NC(=O)COC3CCCC3)n2)c2ccccc2)noc1=O", "note": "[Example 94]", "LogP": "4.04 [a]"}, {"smiles": "CC/C=C\\CCOC(=O)Nc1cccc(CO/N=C(/c2ccccc2)c2noc(=O)n2C)n1", "note": "[compound 540]", "LogP": "4.44 [a]"}, {"smiles": "COC(=O)C(C)COC(=O)Nc1cccc(CON=C(c2ccccc2)c2noc(=O)n2C)n1", "note": "(stereo not drawn) [compound 491]", "LogP": "3.33 [a]"}, {"smiles": "Cn1c(/C(=N\\OCc2cccc(NC(=O)OCc3ccccn3)n2)c2ccccc2)noc1=O", "note": "[compound 437]", "LogP": "2.64 [a]"}, {"smiles": "CCC=CCCCOC(=O)Nc1cccc(CON=C(c2ccccc2)c2noc(=O)n2C)n1", "note": "[compound 488]", "LogP": "4.78 [a]"}, {"smiles": "CCCCOC(=S)Nc1cccc(CO/N=C(/c2ccccc2)c2noc(=O)n2C)n1", "note": "[Example 183]", "LogP": "4.53 [a]"}, {"smiles": "CC(Oc1ccccc1)C(=O)Nc1nc(CON=C(c2ccccc2Cl)c2noc(=O)n2C)cs1", "note": "(stereo not drawn) [Example 493]", "LogP": "3.81 [a]"}, {"smiles": "CCCC(C)C(=O)Nc1cccc(CO/N=C(/c2ccccc2F)c2noc(=O)n2C)n1", "note": "(stereo not drawn) [Example 449]", "LogP": "3.73 [a]"}, {"smiles": "Cn1c(C(=NOCc2cccc(NC(=O)OC(C)(C)C)n2)c2cccc(F)c2F)noc1=O", "note": "[Example 249]", "LogP": "3.94 [a]"}, {"smiles": "CCCCSC(=O)Nc1cccc(CO/N=C(/c2ccccc2)c2noc(=O)n2C)n1", "note": "[Example 320]", "LogP": "4.41 [a]"}, {"smiles": "CC#CCC(C)OC(=O)Nc1cccc(CO/N=C(/c2ccccc2)c2noc(=O)n2C)n1", "note": "(racemic) [compound 455]", "LogP": "3.89 [a]"}, {"smiles": "Cn1c(/C(=N\\OCc2csc(NC(=O)SC(C)(C)C)n2)c2ccccc2)noc1=O", "note": "[Example 539]", "LogP": "4.04 [a]"}, {"smiles": "Cc1ccc(C(=NOCc2csc(N(C)C=O)n2)c2noc(=O)n2C)cc1", "note": "[Example 360]", "LogP": "3.06 [a]"}, {"smiles": "Cn1c(/C(=N\\OCc2cccc(NC(=O)OCC3CCCCC3)n2)c2ccccc2)noc1=O", "note": "[compound 541]", "LogP": "4.88 [a]"}, {"smiles": "COc1ccc(C(=NOCc2cccc(NC(=O)OC(C)(C)C)n2)C(N)=NO)cc1", "note": "(mixture of isomers) [Example V-13]", "LogP": "2.51 [a]"}, {"smiles": "Cn1c(/C(=N\\OCc2cccc(NC(=O)OCCCC3CCCC3)n2)c2ccccc2)noc1=O", "note": "[compound 408]", "LogP": "5.31 [a]"}, {"smiles": "Cn1c(/C(=N\\OCc2cccc(NC(=O)OCc3ccc([N+](=O)[O-])cc3)n2)c2ccccc2)noc1=O", "note": "[compound 476]", "LogP": "3.83 [a]"}, {"smiles": "Cc1cccc(/C(=N/OCc2cccc(NC(=O)c3cccc(F)c3)n2)c2noc(=O)n2C)c1", "note": "[Example 391]", "LogP": "3.99 [a]"}, {"smiles": "Cn1c(/C(=N\\OCc2csc(NC(=O)COc3ccc(F)cc3)n2)c2ccccc2)noc1=O", "note": "[Example 38]", "LogP": "3.53 [a]"}, {"smiles": "Cn1c(/C(=N\\OCc2cccc(NC(=O)OCc3ccncc3)n2)c2ccccc2)noc1=O", "note": "[compound 411]", "LogP": "2.01 [a]"}, {"smiles": "Cn1c(/C(=N\\OCc2cccc(NC(=O)OCCc3ccccc3Br)n2)c2ccccc2)noc1=O", "note": "[Example 298]", "LogP": "4.66 [a]"}, {"smiles": "COc1ccccc1C(=O)Nc1cccc(CO/N=C(/c2ccccc2)c2noc(=O)n2C)n1", "note": "[Example 181]", "LogP": "3.87 [a]"}, {"smiles": "CC(C)(C)OC(=O)Nc1cccc(CON=C(C(N)=NO)c2ccccc2)n1", "note": "(mixture of isomers) [Example V-14]", "LogP": "2.57 [a]"}, {"smiles": "CC(C)(C)OC(=O)Nc1cccc(CON=C(C(N)=NO)c2ccccc2)n1", "note": "(mixture of isomers) [Example V-11]", "LogP": "2.54 [a]"}, {"smiles": "Cn1c(/C(=N\\OCc2cccc(NC(=O)OCCCC(F)(F)F)n2)c2ccccc2)noc1=O", "note": "[Example 205]", "LogP": "3.85 [a]"}, {"smiles": "Cn1c(/C(=N\\OCc2cccc(NC(=O)COc3ccc(F)cc3)n2)c2ccccc2)noc1=O", "note": "[Example 66]", "LogP": "3.73 [a]"}, {"smiles": "CCCOCCOC(=O)Nc1cccc(CO/N=C(/c2ccccc2)c2noc(=O)n2C)n1", "note": "[compound 531]", "LogP": "3.57 [a]"}, {"smiles": "C=COC(=O)Nc1cccc(CO/N=C(/c2ccccc2)c2noc(=O)n2C)n1", "note": "[compound 482]", "LogP": "3.33 [a]"}, {"smiles": "CC(C)(C)OC(=O)Nc1cccc(CO/N=C(/c2ccc(F)cc2)c2noc(=O)[nH]2)n1", "note": "[Example 214]", "LogP": "3.78 [a]"}, {"smiles": "COc1ccc(OC(=O)Nc2cccc(CO/N=C(/c3ccccc3)c3noc(=O)n3C)n2)cc1", "note": "[compound 532]", "LogP": "3.69 [a]"}, {"smiles": "CC(OC(=O)Nc1cccc(CON=C(c2ccccc2)c2noc(=O)n2C)n1)C1CCCC1", "note": "(stereo not drawn) [compound 502]", "LogP": "4.82 [a]"}, {"smiles": "NC(=NO)C(=NOCc1cccc(N)n1)c1cccc(F)c1", "note": "(mixture of isomers) [Example V-12]", "LogP": "0.56 [a]"}, {"smiles": "Cn1c(C(=NOCc2cccc(NC(=O)OCCCCCCCl)n2)c2ccccc2)noc1=O", "note": "[compound 486]", "LogP": "4.49 [a]"}, {"smiles": "Cn1c(/C(=N\\OCc2cccc(NC(=O)OCCOc3ccccc3)n2)c2ccccc2)noc1=O", "note": "[compound 456]", "LogP": "3.94 [a]"}, {"smiles": "COc1ccc(COC(=O)Nc2cccc(CO/N=C(/c3ccccc3)c3noc(=O)n3C)n2)cc1", "note": "[compound 450]", "LogP": "3.92 [a]"}, {"smiles": "Cn1c(/C(=N\\OCc2cccc(NC(=O)OCCCC(F)(F)C(F)(F)F)n2)c2ccccc2)noc1=O", "note": "[Example 293]", "LogP": "4.29 [a]"}, {"smiles": "Cn1c(/C(=N\\OCc2cccc(NC(=O)COc3ccccc3F)n2)c2ccccc2)noc1=O", "note": "[Example 125]", "LogP": "3.76 [a]"}, {"smiles": "Cn1c(/C(=N\\OCc2cccc(NC(=O)OCCC3CCOCC3)n2)c2ccccc2)noc1=O", "note": "[compound 537]", "LogP": "3.44 [a]"}, {"smiles": "Cn1c(/C(=N\\OCc2cccc(NC(=O)OC(C)(C)C)n2)c2ccccc2F)noc1=O", "note": "[Example 97]", "LogP": "3.92 [a]"}, {"smiles": "COC(=O)Nc1cccc(CO/N=C(/c2ccccc2)c2noc(=O)n2C)n1", "note": "[compound 547]", "LogP": "2.84 [a]"}, {"smiles": "Cn1c(/C(=N\\OCc2cccc(NC(=O)OCC#C[Si](C)(C)C)n2)c2ccccc2)noc1=O", "note": "[compound 443]", "LogP": "4.63 [a]"}, {"smiles": "CC(C)[C@@H]1CC[C@@H](C)C[C@H]1OC(=O)Nc1cccc(CO/N=C(/c2ccccc2)c2noc(=O)n2C)n1", "note": "[compound 462]", "LogP": "5.9 [a]"}, {"smiles": "CCCCC(=O)Nc1cccc(CO/N=C(/c2ccccc2F)c2noc(=O)n2C)n1", "note": "[Example 480]", "LogP": "3.44 [a]"}, {"smiles": "CCCCSC(=S)Nc1nc(CON=C(c2ccccc2)c2noc(=O)n2C)cs1", "note": "[Example 512]", "LogP": "4.81 [a]"}, {"smiles": "CCC1(COC(=O)Nc2cccc(CO/N=C(/c3ccccc3)c3noc(=O)n3C)n2)COC1", "note": "[compound 520]", "LogP": "3.27 [a]"}, {"smiles": "Cc1cc(C)c(OC(=O)Nc2cccc(CO/N=C(/c3ccccc3)c3noc(=O)n3C)n2)c(C)c1", "note": "[compound 470]", "LogP": "4.56 [a]"}, {"smiles": "Cn1c(/C(=N\\OCc2cccc(NC(=O)COc3cccc(Cl)c3)n2)c2ccccc2)noc1=O", "note": "[Example 105]", "LogP": "4.1 [a]"}, {"smiles": "CC(CC1CC1)OC(=O)Nc1cccc(CO/N=C(/c2ccccc2)c2noc(=O)n2C)n1", "note": "(racemic) [compound 475]", "LogP": "4.32 [a]"}, {"smiles": "CCCCC(=O)Nc1cccc(CO/N=C(/c2cccc(F)c2F)c2noc(=O)n2C)n1", "note": "[Example 420]", "LogP": "3.55 [a]"}, {"smiles": "CC(C)CC(C)OC(=O)Nc1cccc(CO/N=C(/c2ccccc2)c2noc(=O)n2C)n1", "note": "(stereo not drawn) [Example 273]", "LogP": "4.68 [a]"}, {"smiles": "C=CC(=O)OCCOC(=O)Nc1cccc(CO/N=C(/c2ccccc2)c2noc(=O)n2C)n1", "note": "[compound 515]", "LogP": "3.21 [a]"}, {"smiles": "CCCCCC(=O)Nc1cccc(CO/N=C(/c2ccccc2F)c2noc(=O)n2C)n1", "note": "[Example 513]", "LogP": "3.81 [a]"}, {"smiles": "Cc1ccc(C(=NOCc2csc(N)n2)C(N)=NO)cc1", "note": "(mixture of isomers) [Example V-15]", "LogP": "0.89 [a]"}, {"smiles": "Cn1c(/C(=N\\OCc2cccc(NC(=O)COc3ccc(Cl)cc3)n2)c2ccccc2)noc1=O", "note": "[Example 402]", "LogP": "4.1 [a]"}, {"smiles": "COc1ccccc1COC(=O)Nc1cccc(CO/N=C(/c2ccccc2)c2noc(=O)n2C)n1", "note": "[compound 409]", "LogP": "4.06 [a]"}, {"smiles": "CC(OC(=O)Nc1cccc(CON=C(c2ccccc2)c2noc(=O)n2C)n1)C1CCCCC1", "note": "(stereo not drawn) [compound 485]", "LogP": "5.25 [a]"}, {"smiles": "Cn1c(C(=NOCc2cccc(NC(=O)OCCCc3cccnc3)n2)c2ccccc2)noc1=O", "note": "[compound 497]", "LogP": "2.11 [a]"}, {"smiles": "Cc1ccc(/C(=N/OCc2csc(N)n2)c2noc(=O)n2C)cc1", "note": "[Example 326]", "LogP": "1.82 [a]"}, {"smiles": "CC(Oc1cccc(Cl)c1)C(=O)Nc1cccc(CO/N=C(/c2ccccc2)c2noc(=O)n2C)n1", "note": "(stereo not drawn) [Example 64]", "LogP": "4.38 [a]"}, {"smiles": "Cc1ccc(C(=NOCc2csc(NC(=O)Cc3ccccc3)n2)c2noc(=O)n2C)cc1", "note": "[Example 252]", "LogP": "3.65 [a]"}]}]}
